# Test results reported in PubChem BioAssay (NCI).
# Values joined by “and” are separate entries in the source; they are usually repeats but may differ in a detail not shown here. Identical values can stand only once.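 The compound was tested at five concentrations on cells cultured in 96-well plates, with a 48-hour exposure period. GI50 is the concentration that inhibits growth by half. The concentration for full growth arrest is given as TGI.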
# Legend:
# Test in all cases: NCI tumour cell line growth inhibition, 48 h
# HS 578T breast = system: HS 578T breast
# MDA-MB-435 = system: MDA-MB-435
# RXF-631 renal = system: RXF-631 renal
# KM20L2 colon = system: KM20L2 colon
# DMS 114 small cell lung = system: DMS 114 small cell lung
# MDA-N = system: MDA-N
SMILES,GI50 (HS 578T breast),TGI (HS 578T breast),GI50 (MDA-MB-435),TGI (MDA-MB-435),TGI (RXF-631 renal),TGI (KM20L2 colon),TGI (DMS 114 small cell lung),TGI (MDA-N)
CC(C)(O)CC(=O)NCCn1ccc2ncnc(Nc3ccc(Oc4cccc(C(F)(F)F)c4)c(Cl)c3)c21,4.6 µM,> 10 µM,3.98 µM,> 10 µM,,,,
CCc1ccc(NC(=O)COC(=O)c2cc([N+](=O)[O-])ccc2Sc2nnnn2C)cc1,2.65 µM,9.36 µM,3.42 µM,21.4 µM,,,,
COc1ccc(C2SC(C)C(=O)N2NC(=O)C(O)c2ccccc2)cc1OC (configuration not stated),> 100 µM,> 100 µM,> 100 µM,> 100 µM,,,,
Cn1cc(C2=C(c3cccc(OCC(O)CO)c3)C(=O)NC2=O)c2ccccc21 (configuration not stated),> 15.2 µM,> 25 µM,> 19.1 µM,> 25 µM,,,,
Cc1ccc(CNc2c3ccccc3nc3cc(NC(=O)CCN4CCCC4)ccc23)cc1,,,1.33 µM,2.62 µM,,,,
Nc1nc(Nc2ccc(C3CCC(N4CCOCC4)CC3)cc2)nn1-c1ccccn1 (configuration not stated),1.64 µM,7.41 µM,3.57 µM,> 100 µM,,,,
CN1CC[C@@H](c2c(O)cc(O)c3c(=O)cc(-c4ccccc4Cl)oc23)[C@@H]1CO,0.233 µM,1 µM,0.271 µM,1.1 µM,,,,
Cc1cccc(C(C)C)c1NC(=O)CC1C(=O)Nc2ccccc2S1(=O)=O (configuration not stated),,,,,> 52.6 µM,51.5 µM,45.5 µM,
CC1(C)C2C=CC1(C)C1(CC2)OCCO1 (configuration not stated),,> 100 µM,,> 100 µM,,,,> 100 µM
CN1c2ccccc2N(C)C23N(C)c4ccccc4N(C)C12N(C)c1ccccc1N3C (configuration not stated),,,,,> 100 µM,> 100 µM,> 100 µM,
Cc1ccc(Nc2nc(C)c(C(/C=C/c3ccc(/C=C/C(=N/NC(=O)C[n+]4ccccc4)c4sc(Nc5ccc(C)cc5[N+](=O)[O-])nc4C)cc3)=N\NC(=O)C[n+]3ccccc3)s2)c([N+](=O)[O-])c1,,,,,> 100 µM,> 100 µM,> 100 µM,
COc1ccc(/C=N/N=C(\N)NO)c(OC)c1,,,,,,,> 100 µM,
COc1cc([C@H]2OC[C@H]3[C@@H]2CO[C@@H]3c2cc(OC)c3c(c2)OCO3)cc(OC)c1OC,,> 100 µM,,> 100 µM,,,,> 100 µM
[N-]=[N+]=NC(CI)c1cn([C@H]2C[C@H](O)[C@@H](CO)O2)c(=O)[nH]c1=O (some centres not stated),,,,,,> 100 µM,> 100 µM,
CS[C@]12C(=O)C[C@@]3(C)[C@@H](CC[C@]3(O)C(=O)CO)[C@@H]1CCC1=CC(=O)CC[C@@]12C,,> 100 µM,,> 100 µM,,,,69.4 µM
Cc1ccc(S(=O)(=O)Nc2cccc3[nH]c(C(F)(F)F)nc23)cc1,0.887 µM,38.2 µM,0.204 µM,> 100 µM,,,,
O=C1c2ccccc2-c2c1c1ccccc1c(=O)n2CCN1CCOCC1,> 100 µM,> 100 µM,> 100 µM,> 100 µM,,,,
Cc1ccccc1NC(=O)C(=O)CC(=O)c1c(C)n([O-])c2ccccc2[n+]1=O,,,,,,> 100 µM,> 100 µM,
COc1cc(C2C(Cl)C(=O)N2NC(=O)c2ccc(N)cc2)ccc1O (configuration not stated),,,,,,> 100 µM,,
CCOC(=O)NC(=O)c1cn(CCN2CCN(c3ncnc4nc[nH]c34)CC2)c(=O)[nH]c1=O,,,,,> 100 µM,> 100 µM,> 100 µM,
CCOC(=O)C(=Cc1cccnc1C)C(=O)OCC,,,,,39.7 µM,10.7 µM,31.3 µM,

SMILES,GI50 (HS 578T breast),TGI (HS 578T breast),GI50 (MDA-MB-435),TGI (MDA-MB-435),TGI (RXF-631 renal),TGI (KM20L2 colon),TGI (DMS 114 small cell lung),TGI (MDA-N)
Cc1c2c(nn1C)CSCc1cc(n(C)n1)CSc1cc(c3ccccc3c1)OCCCc1c(C(=O)O)n(C)c3c-2c(Cl)ccc13,4.48 µM,32.7 µM,2.45 µM,14.3 µM,,,,
C[Si](C)(C)c1ccc(-c2sc(-c3ccc([Si](C)(C)C)s3)c3c2C[Si]2(C3)Cc3c(-c4ccc([Si](C)(C)C)s4)sc(-c4ccc([Si](C)(C)C)s4)c3C2)s1,,,,,> 100 µM,> 100 µM,,
O=C(NC[C@H](O)CO)c1ccncc1Nc1ccc(I)cc1F,> 64.1 µM,> 100 µM,0.00907 µM and 0.0257 µM,> 100 µM,,,,
CCc1cccc(C)c1NC(=O)C(=O)Cc1nc2ccccc2s1,,,,,> 100 µM,> 100 µM,> 100 µM,
CCOc1ccccc1N=Nc1c(C)[nH]n(-c2nc(-c3ccccc3)cs2)c1=O,29.2 µM,> 95.1 µM,> 100 µM,> 100 µM,,,,
CN(/N=C/c1cccc2cccnc12)c1ccccc1,,,,,,> 100 µM,> 100 µM,
COc1c2c(nc3ccccc13)-c1cc3c(c(=O)n1C2)COC(=O)C3(O)CC(=O)N1CCOCC1 (configuration not stated),,> 88.8 µM,,76.9 µM,,> 100 µM,24.2 µM,> 100 µM
COc1ccc2ccccc2c1C1OC(=O)c2ccccc21 (configuration not stated),,,,,> 100 µM,> 100 µM,> 100 µM,
C1=C2/CC[C@H](Sc3ccccc3)[C@H]2C2(CCCCC/1)OCCO2,,,,,,45.3 µM,,
O=S1(=O)OCCOS(=O)(=O)C1Cc1ccccc1,,,,,,> 100 µM,> 100 µM,
COc1ccc(C(C#N)Cc2cc(OC)c(OC)c(OC)c2)cc1 (configuration not stated),,,,,> 100 µM,,63.4 µM,
Cc1ccc(C)c(NC(=O)CC/C(=N\NC(=O)c2c(O)ccc3ccccc23)C(C)C(=O)c2ccc(O)cc2)c1 (configuration not stated),,,,,,30 µM,,
Nc1[nH]nc2nc(-c3cccs3)cc(C(F)(F)F)c12,> 25 µM,> 25 µM,> 25 µM,> 25 µM,,,,
COC(=O)C1=C(c2cc(OC)c(OC)c(OC)c2)OC(c2ccc(OC)c(OC)c2)C1 (configuration not stated),,,,,,> 100 µM,81.3 µM,
O=C(NN1C(=O)CSC12CCCC2)c1[nH]c2ccc(Br)cc2c1-c1ccccc1,96.8 µM,> 100 µM,23.4 µM,63.7 µM,,,,
C[C@]12CCC3[C@@H](CC[C@@H]4c5nonc5CC[C@]34C)C1C/C(=N/O)C2=O (some centres not stated),,,,,> 100 µM,> 100 µM,> 100 µM,
CN(C(=O)c1ccco1)C(=S)N1CCN(c2ccccc2)CC1,,,,,,> 100 µM,> 100 µM,
CC#CC(=O)SCCNC(=O)CC,,> 10 µM,,> 10 µM,,,,> 10 µM
C=C1C(=O)OC2/C=C(/C)C(OC(C)=O)CC(O)/C(C)=C\C(OC(=O)/C(C)=C\C)C12 (configuration not stated),,> 100 µM,,> 100 µM,,,,> 100 µM
C1CN(SSN2CCOCC2)CCO1,30.3 µM,> 100 µM,33.8 µM,> 100 µM,,,,
